The source made the active and inactive calls. The rule behind the calls is not given here.
Test system: CCRIS mutagenicity, Ames/micronucleus/aberration tests
Assay: CCRIS mutagenicity studies
[1] = Test System: AMES SALMONELLA TYPHIMURIUM, Strain/Indicator: TA98, Metabolic Activation: NONE, Method: PREINCUBATION
[2] = Test System: AMES SALMONELLA TYPHIMURIUM, Strain/Indicator: TA98, Metabolic Activation: NONE, Method: STANDARD PLATE
[3] = Test System: AMES SALMONELLA TYPHIMURIUM, Strain/Indicator: TA100, Metabolic Activation: NONE, Method: PREINCUBATION
[4] = Test System: AMES SALMONELLA TYPHIMURIUM, Strain/Indicator: TA100, Metabolic Activation: NONE, Method: STANDARD PLATE
[5] = Test System: AMES SALMONELLA TYPHIMURIUM, Strain/Indicator: TA1535, Metabolic Activation: NONE, Method: PREINCUBATION

In the case of `ClCCCl`, the mutagenic call (Test System: AMES SALMONELLA TYPHIMURIUM, Strain/Indicator: TA97, Metabolic Activation: HAMSTER, LIVER, S-9, AROCLOR 1254 (10%), Method: PREINCUBATION) is reported as “inactive; negative”, the mutagenic call (Test System: AMES SALMONELLA TYPHIMURIUM, Strain/Indicator: TA97, Metabolic Activation: NONE, Method: PREINCUBATION) is reported as “inactive; negative” and the mutagenic call (Test System: AMES SALMONELLA TYPHIMURIUM, Strain/Indicator: TA97, Metabolic Activation: NONE, Method: STANDARD PLATE) is reported as “inactive; negative”. The mutagenic call (Test System: AMES SALMONELLA TYPHIMURIUM, Strain/Indicator: TA97, Metabolic Activation: RAT, LIVER, S-9, AROCLOR 1254 (10%), Method: PREINCUBATION) was “inactive; negative”, the mutagenic call (Test System: AMES SALMONELLA TYPHIMURIUM, Strain/Indicator: TA97, Metabolic Activation: RAT, LIVER, S-9, AROCLOR 1254, Method: STANDARD PLATE) was “active; positive” and the mutagenic call (Test System: AMES SALMONELLA TYPHIMURIUM, Strain/Indicator: TA98, Metabolic Activation: HAMSTER, LIVER, S-9, AROCLOR 1254 (10%), Method: PREINCUBATION) was “inactive; negative”. The mutagenic call [1] was “inactive; negative”, the mutagenic call [2] was “inactive; negative” and the mutagenic call (Test System: AMES SALMONELLA TYPHIMURIUM, Strain/Indicator: TA98, Metabolic Activation: RAT, LIVER, S-9, AROCLOR 1254 (10%), Method: PREINCUBATION) was “inactive; negative”. For the same compound, the mutagenic call (Test System: AMES SALMONELLA TYPHIMURIUM, Strain/Indicator: TA98, Metabolic Activation: RAT, LIVER, S-9, AROCLOR 1254, Method: STANDARD PLATE) was “active; positive”, the mutagenic call (Test System: AMES SALMONELLA TYPHIMURIUM, Strain/Indicator: TA100, Metabolic Activation: HAMSTER, LIVER, S-9, AROCLOR 1254 (10%), Method: PREINCUBATION) was “inactive; negative” and the mutagenic call [3] was “inactive; negative”. For the same compound, the mutagenic call [4] was “active; positive”, the mutagenic call (Test System: AMES SALMONELLA TYPHIMURIUM, Strain/Indicator: TA100, Metabolic Activation: RAT, LIVER, S-9, AROCLOR 1254 (10%), Method: PREINCUBATION) was “inactive; negative” and the mutagenic call (Test System: AMES SALMONELLA TYPHIMURIUM, Strain/Indicator: TA100, Metabolic Activation: RAT, LIVER, S-9, AROCLOR 1254, Method: STANDARD PLATE) was “active; positive”. For the same compound, the mutagenic call (Test System: AMES SALMONELLA TYPHIMURIUM, Strain/Indicator: TA104, Metabolic Activation: NONE, Method: STANDARD PLATE) was “inactive; negative”, the mutagenic call (Test System: AMES SALMONELLA TYPHIMURIUM, Strain/Indicator: TA104, Metabolic Activation: RAT, LIVER, S-9, AROCLOR 1254, Method: STANDARD PLATE) was “active; positive” and the mutagenic call (Test System: AMES SALMONELLA TYPHIMURIUM, Strain/Indicator: TA1530, Metabolic Activation: NONE, Method: SPOT) was “active; positive”. The mutagenic call (Test System: AMES SALMONELLA TYPHIMURIUM, Strain/Indicator: TA1535, Metabolic Activation: HAMSTER, LIVER, S-9, AROCLOR 1254 (10%), Method: PREINCUBATION) was “active; positive”, the mutagenic call [5] was “inactive; negative” and the mutagenic call (Test System: AMES SALMONELLA TYPHIMURIUM, Strain/Indicator: TA1535, Metabolic Activation: NONE, Method: SPOT) was “active; positive”. For the same compound, the mutagenic call (Test System: AMES SALMONELLA TYPHIMURIUM, Strain/Indicator: TA1535, Metabolic Activation: NONE, Method: STANDARD PLATE) was “inactive; negative”, the mutagenic call (Test System: AMES SALMONELLA TYPHIMURIUM, Strain/Indicator: TA1535, Metabolic Activation: RAT, LIVER, S-9, AROCLOR 1254 (10%), Method: PREINCUBATION) was “active; positive” and the mutagenic call (Test System: AMES SALMONELLA TYPHIMURIUM, Strain/Indicator: TA1535, Metabolic Activation: RAT, LIVER, S-9, Method: STANDARD PLATE) was “active; positive”. For the same compound, the mutagenic call (Test System: AMES SALMONELLA TYPHIMURIUM, Strain/Indicator: TA1535, Metabolic Activation: S-9 MIX, Method: STANDARD PLATE) was “active; positive”, the mutagenic call (Test System: Ames Salmonella typhimurium, Strain/Indicator: TA98, Metabolic Activation: None, Method: Preincubation) was “inactive; negative” and the mutagenic call (Test System: Ames Salmonella typhimurium, Strain/Indicator: TA98, Metabolic Activation: Rat, Liver, S9, Sodium phenobarbital and 5,6-benzoflavone (10%), Method: Preincubation) was “inactive; negative”. The mutagenic call (Test System: Ames Salmonella typhimurium, Strain/Indicator: TA100, Metabolic Activation: None, Method: Preincubation) was “inactive; negative”, the mutagenic call (Test System: Ames Salmonella typhimurium, Strain/Indicator: TA100, Metabolic Activation: Rat, Liver, S9, Sodium phenobarbital and 5,6-benzoflavone (10%), Method: Preincubation) was “inactive; negative” and the mutagenic call (Test System: Ames Salmonella typhimurium, Strain/Indicator: TA1535, Metabolic Activation: Rat, Liver, S9, Sodium phenobarbital and 5,6-benzoflavone (10%), Method: Preincubation) was “active; positive”. For the same compound, the mutagenic call (Test System: Ames Salmonella typhimurium, Strain/Indicator: TA1537, Metabolic Activation: None, Method: Preincubation) was “inactive; negative”, the mutagenic call (Test System: Ames Salmonella typhimurium, Strain/Indicator: TA1537, Metabolic Activation: Rat, Liver, S9, Sodium phenobarbital and 5,6-benzoflavone (10%), Method: Preincubation) was “inactive; negative” and the mutagenic call (Test System: E. coli, Strain/Indicator: WP2uvrA/pKM101, Metabolic Activation: None, Method: Preincubation) was “inactive; negative”. For the same compound, the mutagenic call (Test System: E. coli, Strain/Indicator: WP2uvrA/pKM101, Metabolic Activation: Rat, Liver, S9, Sodium phenobarbital and 5,6-benzoflavone (10%), Method: Preincubation) was “inactive; negative”.
With `Nc1ccc(-c2ccc(N)cc2[N+](=O)[O-])cc1` the mutagenic call (Test System: AMES SALMONELLA TYPHIMURIUM, Strain/Indicator: TA98(1,8-DNP6), Metabolic Activation: NONE, Method: STANDARD PLATE) was “active; positive”, the mutagenic call (Test System: AMES SALMONELLA TYPHIMURIUM, Strain/Indicator: TA98(1,8-DNP6), Metabolic Activation: S-9, Method: STANDARD PLATE) was “active; positive” and the mutagenic call [2] was “active; positive”. For the same compound, the mutagenic call (Test System: AMES SALMONELLA TYPHIMURIUM, Strain/Indicator: TA98, Metabolic Activation: S-9, Method: STANDARD PLATE) was “active; positive”, the mutagenic call [4] was “inactive; negative” and the mutagenic call (Test System: AMES SALMONELLA TYPHIMURIUM, Strain/Indicator: TA100, Metabolic Activation: S-9, Method: STANDARD PLATE) was “active; positive”.
For `O=C(O)C(F)(F)C(F)(Cl)C(F)(F)C(F)(Cl)C(F)(F)C(F)(Cl)C(F)(F)Cl` (stereo not drawn), the mutagenic call [1] was “inactive; negative”, the mutagenic call (Test System: AMES SALMONELLA TYPHIMURIUM, Strain/Indicator: TA98, Metabolic Activation: RAT, LIVER, S-9, Method: PREINCUBATION) was “inactive; negative” and the mutagenic call [3] was “inactive; negative”. The mutagenic call (Test System: AMES SALMONELLA TYPHIMURIUM, Strain/Indicator: TA100, Metabolic Activation: RAT, LIVER, S-9, Method: PREINCUBATION) was “inactive; negative”, the mutagenic call [5] was “inactive; negative” and the mutagenic call (Test System: AMES SALMONELLA TYPHIMURIUM, Strain/Indicator: TA1535, Metabolic Activation: RAT, LIVER, S-9, Method: PREINCUBATION) was “inactive; negative”. The mutagenic call (Test System: AMES SALMONELLA TYPHIMURIUM, Strain/Indicator: TA1537, Metabolic Activation: NONE, Method: PREINCUBATION) was “inactive; negative”, the mutagenic call (Test System: AMES SALMONELLA TYPHIMURIUM, Strain/Indicator: TA1537, Metabolic Activation: RAT, LIVER, S-9, Method: PREINCUBATION) was “inactive; negative” and the mutagenic call (Test System: AMES SALMONELLA TYPHIMURIUM, Strain/Indicator: TA1538, Metabolic Activation: NONE, Method: PREINCUBATION) was “inactive; negative”. The mutagenic call (Test System: AMES SALMONELLA TYPHIMURIUM, Strain/Indicator: TA1538, Metabolic Activation: RAT, LIVER, S-9, Method: PREINCUBATION) was “inactive; negative”, the mutagenic call (Test System: CHINESE HAMSTER OVARY, Strain/Indicator: CHO-K1-BH4 (HGPRT), Metabolic Activation: NONE, Method: STANDARD PLATE) was “inactive; negative” and the mutagenic call (Test System: CHINESE HAMSTER OVARY, Strain/Indicator: CHO-K1-BH4 (HGPRT), Metabolic Activation: RAT, LIVER, S-9, Method: STANDARD PLATE) was “inactive; negative”. The mutagenic call (Test System: UDS RODENT HEPATOCYTES, Strain/Indicator: THY INCORP (NON-S-PHASE), Metabolic Activation: NONE, Method: AUTORADIOGRAPHY) was “inactive; negative”.
`Cc1c2ccccc2cc2c3c(ccc12)C(=O)C(=O)C=C3` was tested, and the mutagenic call (Test System: AMES SALMONELLA TYPHIMURIUM, Strain/Indicator: TA97A, Metabolic Activation: NONE, Method: PREINCUBATION) was “active; positive”, the mutagenic call [1] was “inactive; negative” and the mutagenic call [3] was “inactive; negative”. For the same compound, the mutagenic call (Test System: AMES SALMONELLA TYPHIMURIUM, Strain/Indicator: TA102, Metabolic Activation: NONE, Method: PREINCUBATION) was “inactive; negative” and the mutagenic call (Test System: AMES SALMONELLA TYPHIMURIUM, Strain/Indicator: TA104, Metabolic Activation: NONE, Method: PREINCUBATION) was “inactive; negative”.

— PubChem BioAssay AID1259407 (Chemical Carcinogenesis Research Information System (CCRIS), 2018)
